From US20240016924A1, “NEW ADJUVANT TO IMPROVE THE INNATE IMMUNITY” (INSTITUT NATIONAL DE LA SANTÉ ET DE LA RECHERCHE MÉDICALE, priority 2020, published 2024)

Experiments:
Assay type in all cases: cell-based, human
nasal RPMI cells = experiment: Cytokines and chemokines quantification (Luminex), nasal RPMI cells; conditions: 125 μM, 24 hrs
Experimental: (§1) TSLP, IL-25/IL-17E, IL-33, IFN-γ, IL-10, IL-12/23p40, IL-4, IL-5, IL-6, IL-13, TNF-α, MMP-9, IL-8/CXCL8, […], MDC/CCL22, TARC/CCL17, APRIL and BAFF were measured in culture supernatants from indicated experiments with custom multiplex Luminex assays (Bio-techne) according to the manufacturer's instructions. Additionally, when indicated TSLP was measured in culture supernatants by enzyme-linked immunosorbent assay (ELISA) with a limit of detection of 8 pg/ml (Thermo Fisher) according to the manufacturer's instructions.
We next investigated whether, in addition to TSLP, P1 could stimulate epithelial secretion of additional immune factors prone to attract antigen presenting cells (APCs). […] Together with TSLP (Zhou, Xu et al. 2018), this set of immune factors could facilitate recruitment of APCs to the mucosal surface for initiation of an immune response, since CCL20 and CCL2 chemo-attract macrophages and immature dendritic cells (DCs), and MMP-9 degrades the extracellular matrix and facilitates the migration of immune cells in or out the epithelium. Treg cells have IgA-inducing functions and require RA, TGF-b1, IL-10, and TSLP from intestinal epithelial cells and DCs. So, we assumed IL-10 released from either EC or DC may contribute to IgA class switching (Gutzeit, Magri, et al. 2014).

primary HNECs = experiment: Quantitative RT-PCR for short and long form TSLP, primary HNECs
Experimental: The expression of short and long form TSLP was quantified as described (Bjerkan, Schreurs et al. 2015, Dong, Hu et al. 2016). Briefly, total RNA was extracted using Trizol. Five hundred nanograms of RNA were treated with ezDNase Enzyme (Thermo Fisher) to remove genomic DNA, and reverse transcribed into cDNA using the kit SuperScript IV VILO Master Mix according to manufacturer instructions (Thermo Fisher). Quantitative PCR was performed using reported primers (Dong, Hu et al. 2016) and the PowerUp SYBR Green Master Mix according to manufacturer instructions (Thermo Fisher). Reactions were performed in triplicates, with glyceraldehyde-3-phosphate dehydrogenase (GAPDH) as the internal control. Amplification, data acquisition, and analysis were carried out using the LightCycler 480 Software (Roche, Mannheim, Germany). The levels of TSLP mRNA were normalized to the levels of GAPDH using the ΔCt method (Schmittgen and Livak 2008) and were presented as 2-ΔCt values.

RPMI 2650 cells = experiment: TSLP secretion in nasal RPMI 2650 cell culture supernatants (ELISA)
Experimental: Nasal RPMI 2650 cells (isolated from the human nasal septum, squamous cell carcinoma, ATCC) were grown in MEMα (Minimum Essential Medium α, Thermo Fisher) supplemented with 10% fetal calf serum (FCS, Eurobio, Courtaboeuf, France) and 1% penicillin/streptomycin.
as §1
We first investigate whether P1 induced TSLP secretion in nasal epithelium. Therefore, we cultured human nasal epithelial cells (RPMI 2650) with P1 Glade B for 2-24 hours at 37° C. and analyzed the culture supernatants for TSLP secretion.

autologous CD4+ T cells = experiment: DC-T co-cultures, CD4+ T cell proliferation (CFSE)
Experimental: Autologous CD4+ T cells were purified from PMBCs by negative selection according to manufacturer instructions (StemCell Technologies, France) (purity>95%)
DCs and confluent ECs were co-cultured overnight as described above, and DC-EC or eduDC was further incubated with P1 (clade B, 125 μM) or medium for 24 h. Then, DCs were separated and incubated with autologous CD4+ T cells pre-labeled with CFSE (Thermo Fisher) according to the manufacturer's instructions, at a ratio of 1:5 (DC/T). After 5 days of culture, CD4+ T cell proliferation was analyzed by flow cytometry as described (Yeh, Yeh et al. 2013, Qin, Yin et al. 2015) using Phytohaemagglutinin (PHA) (5 μg/mL) as positive control.

Monocyte-derived DCs = experiment: DC-EC co-culture and DC activation
Experimental: Monocyte-derived DCs (DCs) were generated from primary human monocytes obtained from PBMCs (purity>98%) as described (Sallusto and Lanzavecchia 1994, Magérus-Chatinet, Yu et al. 2007). In brief, human peripheral blood mononuclear cells (PBMC) were separated from healthy donors blood (EFS, Paris, France), and monocytes were purified from PBMC by negative selection according to manufacturer instructions (StemCell Technologies, France). DCs were obtained by incubating monocytes for 7 days in complete medium containing GM-CSF (100 ng/ml) and IL-4 ([…]).
Three DC culture systems were developed. Monocytes derived DCs (5×10^5 cells) were incubate for 24 h in medium alone and considered as non-mucosal DCs (DCs) or co-cultured with nasal epithelial cell (RPMI-2650 cell line) monolayer in 24-well plate (DC-EC or eduDC systems for 24 hours at 37° C. In turn, DCs were either further cultured with ECs during P1 stimulation (DC-ECs) or separated from EC and transferred into a new plate (eduDCs) for further P1 treatment. Subsequently, P1 (clade B, 125 μM) or medium were added to each of the DCs, DC-ECs or eduDCs cultures for 16 hrs. DCs were collected for surface staining with allophycocyanin (APC)-conjugated anti-CD86, R-phycoerythrin (PE)-conjugated anti-CD83, APC-conjugated anti-TSLPR, PE-conjugated anti-IL-7Rα antibodies (all from Bio-Techne). Specific labeling was quantified by flow cytometry using a Guava EasyCyte flow cytometer and the InCyte software (Merck) described (Duchemin, Khamassi et al. 2018). Culture supernatant were collected and frozen at −80° C. for subsequent cytokine and chemokine analyses.
In particular, mucosal DCs modulate their functions by interacting with epithelial cells (ECs) including via epithelial secretion of TSLP (Rimoldi, Chieppa et al. 2005, Biton, Levin et al. 2011). Thus, we established a simplified mucosal DC model, by co-culturing DCs and nasal ECs (RPMI-2650 cell line), thereby mimicking the nasal mucosal environment. DCs were first ‘educated’ by a 24 hr co-culture with ECs. Subsequently, these ‘educated’ DCs were either maintained in culture with ECs and referred to as DC-EC, or separated from the epithelium and referred to as eduDC. Alternatively, DCs only cultured with medium represented ‘non-mucosal’ DCs.

SQNQQEKNEQELLELDKWASLWNWFNITNWLWYIK [P1]
secretion of MMP-9, CCL20, CCL2 and IL-10 (nasal RPMI cells): selectively induced the secretion of MMP-9, CCL20, CCL2 and IL-10 | increase of lfTSLP transcription compared to unstimulated cells (primary HNECs; HNECs, p=0.004, n=6): 5.9 fold | level of the sfTSLP transcript (primary HNECs; upon P1 stimulation, primary HNECs): remains unchanged | TSLP secretion time course (RPMI 2650 cells; 2-24 hours at 37° C.): reaching a plateau from 4 to 24 h | TSLP secretion (RPMI 2650 cells; P1 5, 25, 125 μM, 2 h to 4 h, compared with medium and scramble peptides): upregulates TSLP secretion in a dose-dependent manner | TSLP secretion, trimeric versus monomeric state (RPMI 2650 cells; P1 at 125 μM versus 5 μM and 25 μM): significantly higher secretion of TSLP | Secretion of TSLP (RPMI 2650 cells; peptide at 125 uM, 4 hours, n=5): 52.3 ± 3.4 pg/mL | proliferation of CD4+ T cells (autologous CD4+ T cells; P1 stimulation on CD4+ T cells alone): has no effect | proliferation of autologous CD4+ T cells (autologous CD4+ T cells; peptide-primed eduDCs, 125 μM, 5 days, DC/T 1:5): induced the proliferation of autologous CD4+ T cells | expression of maturation markers CD83 and CD86 (Monocyte-derived DCs; 'non-mucosal' DCs, P1 125 μM overnight): has no effect | IFN-γ secretion (Monocyte-derived DCs; DC models upon P1 stimulation): remains unchanged upon P1-stimulation or slightly decreases in DC-EC | expression of TSLP receptor (TSLP-R and IL-7Rα) (Monocyte-derived DCs; DCs in all three models): significantly enhanced the expression of TSLP receptor | IL-12, IL-13, CCL2, CCL17, TNF-α, APRIL and BAFF secretion (Monocyte-derived DCs; DCs, DC-EC, eduDC): secreted equally in all three models | TSLP secretion (Monocyte-derived DCs; eduDC and DC-EC models): more modest | IL-6, IL-8, IL-10, CCL20, CCL22 and MMP-9 secretion (Monocyte-derived DCs; eduDC and DC-EC models compared with non-mucosal DCs): significant increase | expression of co-stimulatory molecules CD83 and CD86 (Monocyte-derived DCs; mucosal DCs (DC-EC or eduDCs), P1 125 μM overnight, versus untreated): significant up-regulation | IL-25, IL-33, IL-4, IL-5 secretion (Monocyte-derived DCs; whatever the model): remain undetectable
